Test results as given in patent publication US9371265B2, “Compositions and methods related to inhibitors of JAK kinase” (EP PHARMA, INC., priority 2012, dated 2016).

Assays:
PARP = PARP cleavage in SU-DHL-1 cells (Luminex multiplex); format: cell-based, human; conditions: 24 hours, dose-dependent
Experimental: FIGS. 7A-7C. EP009 reduces ALCL cell viability through induction of caspase 3 mediated apoptosis. (A) SUP-M2, SU-DHL-1 or H2228 cells were cultured with increasing amounts of EP009 (0-10 μM) for 72 hours and cell viability measured with the MTS tetrazolium salt assay. Values represent mean absorbance (OD490-OD650 nm) normalized to vehicle (PBS) treated control cells, while error bars represent the standard deviation (n=3). (B) SU-DHL-1 cells were treated with vehicle (PBS) or increasing amounts of EP009 (0-50 μM) for 24 hours. Cells were then lysed, clarified, and subjected to Luminex multiplex analysis to detect activated caspase 3 and (C) cleaved PARP. Values represent MFI normalized to corresponding GAPDH MFI, while error bars represent the standard deviation (n=2). Representative data from three independent experiments are shown. Statistical significance was determined using Student's t-test. (*, p<0.05).
The MILLIPLEX MAP 8-plex Multi-Pathway Signaling Phosphoprotein kit (Millipore) was used to detect phosphorylated ERK1/2 (Thr185/Tyr187), STAT3 (Ser727), JNK1/2 (Thr183/Tyr185), p70 S6 kinase (Thr412), IκBα (Ser32), STAT5A/B (Tyr694/699), CREB (Ser133), and p38 (Thr180/Tyr182). The MILLIPLEX MAP 5-plex STAT Phosphoprotein kit (Millipore) was used to detect phosphorylated STAT1 (Tyr701), STAT2 (Tyr690), STAT3 (Tyr705), STAT5A/B (Tyr694/699), and STAT6 (Tyr641). […]

ERK1/2 = assay: Phospho-ERK1/2 in SU-DHL-1 cells (Luminex multiplex); format: cell-based, human; conditions: 24 hours, dose-dependent
Experimental: (§1) FIGS. 8A-8F. Effect of EP009 on ALCL cells is mediated through selective activation of ERK1/2 and JNK1/2 stress signaling pathways, and inhibition of p70 S6 kinase growth signaling pathways. SU-DHL-1 cells were treated with vehicle (PBS) or increasing amounts of EP009 (0-50 μM) for 24 hours. Cells were then lysed, clarified, and subjected to Luminex multiplex analysis to detect phosphorylated (A) ERK1/2, (B) JNK1/2, (C) p70 S6 kinase, (D) IκBα, (E) CREB, and (F) p38. Values represent mean fluorescence intensity (MFI) normalized to corresponding GAPDH MFI, while error bars represent the standard deviation (n=2). Representative data from two independent experiments are shown. Statistical significance was determined using Student's t-test. (*, p<0.05).
(§2) The MILLIPLEX MAP 8-plex Multi-Pathway Signaling Phosphoprotein kit (Millipore) was used to detect phosphorylated ERK1/2 (Thr185/Tyr187), STAT3 (Ser727), JNK1/2 (Thr183/Tyr185), p70 S6 kinase (Thr412), IκBα (Ser32), STAT5A/B (Tyr694/699), CREB (Ser133), and p38 (Thr180/Tyr182). The MILLIPLEX MAP 5-plex STAT Phosphoprotein kit (Millipore) was used to detect phosphorylated STAT1 (Tyr701), STAT2 (Tyr690), STAT3 (Tyr705), STAT5A/B (Tyr694/699), and STAT6 (Tyr641). The MILLIPLEX MAP Human Apoptosis 3-plex kit (Millipore) was used to detect cleaved PARP, cleaved Caspase 3, and total GAPDH for protein normalization.

p38 MAP kinase = assay: Phospho-p38 in SU-DHL-1 cells (Luminex multiplex); format: cell-based, human; conditions: 24 hours
Experimental: as §1, §2

IκBα = assay: Phospho-IκBα in SU-DHL-1 cells (Luminex multiplex); format: cell-based, human; conditions: 24 hours
Experimental: as §1, §2

AKT1 = AKT1 (Homo sapiens, UniProt P31749); assay: Kinase panel: AKT1; format: biochemical; conditions: 10 μM EP009
Experimental: (§3) Achieving JAK3 selectivity remains a significant challenge in the development of new small molecules for the treatment of cancer and immune-derived diseases. As such, the inventors employed cell-based screening assays of small-molecule libraries based upon the chemical scaffold of the established JAK3 inhibitor NC1153 (Stepkowski et al., J Immunol. (2005), 175(7):4236-4246) EP009 (FIG. 2A) was selected as a lead compound due to improved intrinsic stability (>95% purity in various solvents at 37° C. for 24 hours; FIG. 3) and high-degree of JAK3 selectivity. To test JAK3 versus JAK2 specificity of EP009, the IL-2/JAK3-dependent Kit225, and IL-3/JAK2-dependent BaF/3 cell lines were used. Kit225 and BaF/3 cells growing in the presence of IL-2 or IL-3, respectively, were treated with ascending concentrations of EP009 for 12 hours and cellular JAK3 and JAK2 tyrosine phosphorylation levels detected by Western blot analysis (FIGS. 2B and 2C). Following densitometric analysis, EP009 was determined to dose-dependently reduce IL-2-mediated JAK3 tyrosine phosphorylation with a cellular 50% inhibitory concentration (IC50) between 10 and 20 μM (FIG. 2B). […] To globally evaluate specificity, the inhibitory activity of EP009 was measured against a panel of protein kinases distributed throughout the kinome using the scanEDGE profiling service (KINOMEscan). […]

CDK7 = CDK7 (Homo sapiens, UniProt P50613); assay: Kinase panel: CDK7; format: biochemical; conditions: 10 μM EP009
Experimental: as §3

FGFR3 = FGFR3 (Homo sapiens, UniProt P22607); assay: Kinase panel: FGFR3; format: biochemical; conditions: 10 μM EP009
Experimental: as §3

JNK1 = JNK1 (Homo sapiens, UniProt P45983); assay: Kinase panel: JNK1; format: biochemical; conditions: 10 μM EP009
Experimental: as §3

JNK3 = JNK3 (Homo sapiens, UniProt P53779); assay: Kinase panel: JNK3; format: biochemical; conditions: 10 μM EP009
Experimental: as §3

KIT = KIT (Homo sapiens, UniProt P10721); assay: Kinase panel: KIT; format: biochemical; conditions: 10 μM EP009
Experimental: as §3

PIM3 = PIM3 (Homo sapiens, UniProt Q86V86); assay: Kinase panel: PIM3; format: biochemical; conditions: 10 μM EP009
Experimental: as §3

SRPK3 = SRPK3 (Homo sapiens, UniProt Q9UPE1); assay: Kinase panel: SRPK3; format: biochemical; conditions: 10 μM EP009
Experimental: as §3

Sequence of JNK1 (P45983 whole entry): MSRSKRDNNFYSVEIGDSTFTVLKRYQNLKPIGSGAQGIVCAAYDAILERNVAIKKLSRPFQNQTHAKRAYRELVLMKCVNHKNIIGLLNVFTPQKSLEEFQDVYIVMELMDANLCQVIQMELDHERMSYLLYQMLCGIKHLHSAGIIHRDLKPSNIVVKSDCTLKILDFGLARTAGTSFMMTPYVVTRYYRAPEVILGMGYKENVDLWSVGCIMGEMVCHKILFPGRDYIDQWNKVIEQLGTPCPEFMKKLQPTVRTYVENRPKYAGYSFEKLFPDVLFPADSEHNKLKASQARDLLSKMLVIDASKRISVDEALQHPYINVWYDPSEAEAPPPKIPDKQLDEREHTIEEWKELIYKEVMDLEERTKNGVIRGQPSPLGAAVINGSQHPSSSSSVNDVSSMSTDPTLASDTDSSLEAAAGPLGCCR
Sequence of FGFR3 (P22607 23-806): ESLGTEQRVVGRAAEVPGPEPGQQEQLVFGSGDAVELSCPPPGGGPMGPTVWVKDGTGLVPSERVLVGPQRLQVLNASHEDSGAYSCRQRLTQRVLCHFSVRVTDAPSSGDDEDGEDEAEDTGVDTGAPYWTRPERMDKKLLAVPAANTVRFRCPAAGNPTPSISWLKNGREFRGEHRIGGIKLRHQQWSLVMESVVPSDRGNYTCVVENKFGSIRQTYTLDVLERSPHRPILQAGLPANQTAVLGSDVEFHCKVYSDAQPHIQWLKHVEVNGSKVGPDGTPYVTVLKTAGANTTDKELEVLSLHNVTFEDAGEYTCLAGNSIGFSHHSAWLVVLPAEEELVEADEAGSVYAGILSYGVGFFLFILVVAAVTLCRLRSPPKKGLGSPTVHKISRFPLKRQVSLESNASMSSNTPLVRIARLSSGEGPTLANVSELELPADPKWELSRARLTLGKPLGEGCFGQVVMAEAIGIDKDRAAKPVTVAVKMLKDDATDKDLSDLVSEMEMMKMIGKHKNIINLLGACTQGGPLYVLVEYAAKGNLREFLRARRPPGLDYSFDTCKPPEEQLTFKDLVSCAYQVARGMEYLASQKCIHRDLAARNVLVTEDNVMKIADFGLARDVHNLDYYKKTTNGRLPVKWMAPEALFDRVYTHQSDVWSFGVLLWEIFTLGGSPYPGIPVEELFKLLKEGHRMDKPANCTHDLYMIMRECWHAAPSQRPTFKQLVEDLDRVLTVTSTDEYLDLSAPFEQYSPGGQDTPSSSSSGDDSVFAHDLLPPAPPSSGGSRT
Sequence of JNK3 (P53779 whole entry): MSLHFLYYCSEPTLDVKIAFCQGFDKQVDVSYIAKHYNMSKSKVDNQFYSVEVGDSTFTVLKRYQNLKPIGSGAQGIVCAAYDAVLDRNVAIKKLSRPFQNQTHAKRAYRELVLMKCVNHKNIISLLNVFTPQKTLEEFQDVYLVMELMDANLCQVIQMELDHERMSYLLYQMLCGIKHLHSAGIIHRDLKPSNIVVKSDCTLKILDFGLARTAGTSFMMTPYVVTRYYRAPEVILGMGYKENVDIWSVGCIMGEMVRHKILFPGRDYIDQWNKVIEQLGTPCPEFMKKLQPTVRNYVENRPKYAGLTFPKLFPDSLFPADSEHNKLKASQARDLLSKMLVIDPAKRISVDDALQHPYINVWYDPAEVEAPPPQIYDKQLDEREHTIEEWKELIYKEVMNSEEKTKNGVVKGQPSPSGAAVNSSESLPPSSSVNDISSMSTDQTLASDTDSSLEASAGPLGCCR
Sequence of SRPK3 (Q9UPE1 whole entry): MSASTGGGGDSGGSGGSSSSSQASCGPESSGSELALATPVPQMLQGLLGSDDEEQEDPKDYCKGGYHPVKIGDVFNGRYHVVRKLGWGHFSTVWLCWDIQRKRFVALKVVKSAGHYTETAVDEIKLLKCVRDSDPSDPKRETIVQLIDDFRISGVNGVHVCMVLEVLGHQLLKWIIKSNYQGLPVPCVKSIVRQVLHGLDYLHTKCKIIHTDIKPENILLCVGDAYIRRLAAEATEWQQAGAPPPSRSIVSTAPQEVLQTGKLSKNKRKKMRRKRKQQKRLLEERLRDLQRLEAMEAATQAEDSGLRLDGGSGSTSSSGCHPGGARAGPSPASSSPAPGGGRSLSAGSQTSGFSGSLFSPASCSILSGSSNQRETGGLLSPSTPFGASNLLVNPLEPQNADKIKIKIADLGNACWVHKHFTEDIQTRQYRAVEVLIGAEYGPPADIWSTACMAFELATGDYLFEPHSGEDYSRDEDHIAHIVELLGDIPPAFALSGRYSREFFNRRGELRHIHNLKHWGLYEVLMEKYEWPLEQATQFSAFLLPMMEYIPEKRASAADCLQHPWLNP
Sequence of AKT1 (P31749 whole entry): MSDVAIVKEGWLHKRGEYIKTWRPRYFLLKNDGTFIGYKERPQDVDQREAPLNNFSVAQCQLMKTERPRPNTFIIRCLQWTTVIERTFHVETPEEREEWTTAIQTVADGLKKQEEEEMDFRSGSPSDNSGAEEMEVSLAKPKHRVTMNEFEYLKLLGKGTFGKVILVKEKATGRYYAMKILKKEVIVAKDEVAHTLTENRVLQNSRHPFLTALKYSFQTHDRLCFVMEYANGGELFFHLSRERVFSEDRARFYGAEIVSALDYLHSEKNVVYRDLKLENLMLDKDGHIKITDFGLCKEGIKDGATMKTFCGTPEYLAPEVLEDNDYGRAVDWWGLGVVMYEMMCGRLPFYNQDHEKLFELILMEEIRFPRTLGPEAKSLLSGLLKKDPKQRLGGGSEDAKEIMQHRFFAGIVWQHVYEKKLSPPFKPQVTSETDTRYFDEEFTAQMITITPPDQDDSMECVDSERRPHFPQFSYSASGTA
Sequence of KIT (P10721 26-976): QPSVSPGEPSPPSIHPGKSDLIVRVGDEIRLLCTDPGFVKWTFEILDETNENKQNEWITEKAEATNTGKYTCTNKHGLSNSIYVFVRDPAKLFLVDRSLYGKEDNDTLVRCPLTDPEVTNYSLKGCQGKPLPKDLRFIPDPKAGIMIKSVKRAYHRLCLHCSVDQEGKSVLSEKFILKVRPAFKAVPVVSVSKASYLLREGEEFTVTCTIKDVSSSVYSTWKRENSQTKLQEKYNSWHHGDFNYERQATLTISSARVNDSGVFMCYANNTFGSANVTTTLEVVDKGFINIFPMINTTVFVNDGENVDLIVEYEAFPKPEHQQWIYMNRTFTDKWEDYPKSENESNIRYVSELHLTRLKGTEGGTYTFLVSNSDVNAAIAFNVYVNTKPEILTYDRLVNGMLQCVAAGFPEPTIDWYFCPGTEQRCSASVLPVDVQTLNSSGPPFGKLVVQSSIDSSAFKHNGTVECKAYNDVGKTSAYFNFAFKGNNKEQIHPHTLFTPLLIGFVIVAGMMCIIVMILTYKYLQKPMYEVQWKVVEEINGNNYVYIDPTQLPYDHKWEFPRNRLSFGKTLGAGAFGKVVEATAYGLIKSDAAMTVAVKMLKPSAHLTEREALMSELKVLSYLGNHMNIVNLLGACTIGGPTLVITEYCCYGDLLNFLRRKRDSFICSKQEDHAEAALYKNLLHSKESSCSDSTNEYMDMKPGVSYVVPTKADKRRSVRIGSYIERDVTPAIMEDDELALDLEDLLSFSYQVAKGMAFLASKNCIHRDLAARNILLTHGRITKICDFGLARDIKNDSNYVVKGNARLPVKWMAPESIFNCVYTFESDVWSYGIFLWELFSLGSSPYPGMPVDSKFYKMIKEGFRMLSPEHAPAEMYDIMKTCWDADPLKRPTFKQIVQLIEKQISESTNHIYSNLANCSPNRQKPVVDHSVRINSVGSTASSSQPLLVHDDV
Sequence of CDK7 (P50613 whole entry): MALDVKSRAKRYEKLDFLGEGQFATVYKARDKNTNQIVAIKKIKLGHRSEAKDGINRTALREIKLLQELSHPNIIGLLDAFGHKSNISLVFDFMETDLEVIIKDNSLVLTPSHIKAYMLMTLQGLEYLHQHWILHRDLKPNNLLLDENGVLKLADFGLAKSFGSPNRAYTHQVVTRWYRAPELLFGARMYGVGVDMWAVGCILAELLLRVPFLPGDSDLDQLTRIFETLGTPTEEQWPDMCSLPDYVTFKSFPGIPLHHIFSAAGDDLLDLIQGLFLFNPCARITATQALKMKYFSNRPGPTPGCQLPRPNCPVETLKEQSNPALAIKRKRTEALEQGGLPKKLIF

SMILES: C=C1CCCCCCCCCC(CO)C1=O (stereo not drawn) [EP009, 2-(Hydroxymethyl)-12-methylenecyclododecanone]
- PARP cleavage (PARP): increased
- ERK1/2 phosphorylation (ERK1/2): induced phosphorylation and activation
- p38 MAP kinase phosphorylation status (p38 MAP kinase): No statistically significant change
- IκBα phosphorylation status (IκBα): No statistically significant change
- Kinase Activity (% of Control) (AKT1): 100 % of Control
- Kinase Activity (% of Control) (CDK7): 99 % of Control
- Kinase Activity (% of Control) (FGFR3): 100 % of Control
- Kinase Activity (% of Control) (JNK1): 99 % of Control
- Kinase Activity (% of Control) (JNK3): 100 % of Control
- Kinase Activity (% of Control) (KIT): 100 % of Control
- Kinase Activity (% of Control) (PIM3): 100 % of Control
- Kinase Activity (% of Control) (SRPK3): 100 % of Control
